Molecules are shown by their SMILES. pIC50: −log10 of the molar value. Bounds are passed on as bounds.

The assay concerns the target T1, ATM protein immunoprecipitated from HeLa cell nuclear extract (Homo sapiens, UniProt Q13315).
T1 construct: ATM protein was immunoprecipitated from HeLa cell nuclear extract; endogenous in cells; host or cells: HeLa cell nuclear extract (immunoprecipitated with rabbit polyclonal anti-ATM antiserum)
In words: In vitro ATM inhibition assay (phosphorylation of GSTp53N66 on serine 15, chemiluminescent detection). Note: tested normally from 100 µM down to 0.1 nM. The assay is classed as biochemical. Particulars: read-out: IC50 values (the concentration at which 50% of the enzyme activity is inhibited), ATM inhibition. The gist of the method:
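Immunoprecipitated HeLa nuclear ATM (C-terminal anti-sera) with GSTp53N66 substrate in Hepes pH 7.4 buffer with MgCl2/MnCl2; inhibitor preincubated 10 min at 37 °C, then Na-ATP added, 1 h at 37 °C.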

T1 sequence (Q13315 whole entry): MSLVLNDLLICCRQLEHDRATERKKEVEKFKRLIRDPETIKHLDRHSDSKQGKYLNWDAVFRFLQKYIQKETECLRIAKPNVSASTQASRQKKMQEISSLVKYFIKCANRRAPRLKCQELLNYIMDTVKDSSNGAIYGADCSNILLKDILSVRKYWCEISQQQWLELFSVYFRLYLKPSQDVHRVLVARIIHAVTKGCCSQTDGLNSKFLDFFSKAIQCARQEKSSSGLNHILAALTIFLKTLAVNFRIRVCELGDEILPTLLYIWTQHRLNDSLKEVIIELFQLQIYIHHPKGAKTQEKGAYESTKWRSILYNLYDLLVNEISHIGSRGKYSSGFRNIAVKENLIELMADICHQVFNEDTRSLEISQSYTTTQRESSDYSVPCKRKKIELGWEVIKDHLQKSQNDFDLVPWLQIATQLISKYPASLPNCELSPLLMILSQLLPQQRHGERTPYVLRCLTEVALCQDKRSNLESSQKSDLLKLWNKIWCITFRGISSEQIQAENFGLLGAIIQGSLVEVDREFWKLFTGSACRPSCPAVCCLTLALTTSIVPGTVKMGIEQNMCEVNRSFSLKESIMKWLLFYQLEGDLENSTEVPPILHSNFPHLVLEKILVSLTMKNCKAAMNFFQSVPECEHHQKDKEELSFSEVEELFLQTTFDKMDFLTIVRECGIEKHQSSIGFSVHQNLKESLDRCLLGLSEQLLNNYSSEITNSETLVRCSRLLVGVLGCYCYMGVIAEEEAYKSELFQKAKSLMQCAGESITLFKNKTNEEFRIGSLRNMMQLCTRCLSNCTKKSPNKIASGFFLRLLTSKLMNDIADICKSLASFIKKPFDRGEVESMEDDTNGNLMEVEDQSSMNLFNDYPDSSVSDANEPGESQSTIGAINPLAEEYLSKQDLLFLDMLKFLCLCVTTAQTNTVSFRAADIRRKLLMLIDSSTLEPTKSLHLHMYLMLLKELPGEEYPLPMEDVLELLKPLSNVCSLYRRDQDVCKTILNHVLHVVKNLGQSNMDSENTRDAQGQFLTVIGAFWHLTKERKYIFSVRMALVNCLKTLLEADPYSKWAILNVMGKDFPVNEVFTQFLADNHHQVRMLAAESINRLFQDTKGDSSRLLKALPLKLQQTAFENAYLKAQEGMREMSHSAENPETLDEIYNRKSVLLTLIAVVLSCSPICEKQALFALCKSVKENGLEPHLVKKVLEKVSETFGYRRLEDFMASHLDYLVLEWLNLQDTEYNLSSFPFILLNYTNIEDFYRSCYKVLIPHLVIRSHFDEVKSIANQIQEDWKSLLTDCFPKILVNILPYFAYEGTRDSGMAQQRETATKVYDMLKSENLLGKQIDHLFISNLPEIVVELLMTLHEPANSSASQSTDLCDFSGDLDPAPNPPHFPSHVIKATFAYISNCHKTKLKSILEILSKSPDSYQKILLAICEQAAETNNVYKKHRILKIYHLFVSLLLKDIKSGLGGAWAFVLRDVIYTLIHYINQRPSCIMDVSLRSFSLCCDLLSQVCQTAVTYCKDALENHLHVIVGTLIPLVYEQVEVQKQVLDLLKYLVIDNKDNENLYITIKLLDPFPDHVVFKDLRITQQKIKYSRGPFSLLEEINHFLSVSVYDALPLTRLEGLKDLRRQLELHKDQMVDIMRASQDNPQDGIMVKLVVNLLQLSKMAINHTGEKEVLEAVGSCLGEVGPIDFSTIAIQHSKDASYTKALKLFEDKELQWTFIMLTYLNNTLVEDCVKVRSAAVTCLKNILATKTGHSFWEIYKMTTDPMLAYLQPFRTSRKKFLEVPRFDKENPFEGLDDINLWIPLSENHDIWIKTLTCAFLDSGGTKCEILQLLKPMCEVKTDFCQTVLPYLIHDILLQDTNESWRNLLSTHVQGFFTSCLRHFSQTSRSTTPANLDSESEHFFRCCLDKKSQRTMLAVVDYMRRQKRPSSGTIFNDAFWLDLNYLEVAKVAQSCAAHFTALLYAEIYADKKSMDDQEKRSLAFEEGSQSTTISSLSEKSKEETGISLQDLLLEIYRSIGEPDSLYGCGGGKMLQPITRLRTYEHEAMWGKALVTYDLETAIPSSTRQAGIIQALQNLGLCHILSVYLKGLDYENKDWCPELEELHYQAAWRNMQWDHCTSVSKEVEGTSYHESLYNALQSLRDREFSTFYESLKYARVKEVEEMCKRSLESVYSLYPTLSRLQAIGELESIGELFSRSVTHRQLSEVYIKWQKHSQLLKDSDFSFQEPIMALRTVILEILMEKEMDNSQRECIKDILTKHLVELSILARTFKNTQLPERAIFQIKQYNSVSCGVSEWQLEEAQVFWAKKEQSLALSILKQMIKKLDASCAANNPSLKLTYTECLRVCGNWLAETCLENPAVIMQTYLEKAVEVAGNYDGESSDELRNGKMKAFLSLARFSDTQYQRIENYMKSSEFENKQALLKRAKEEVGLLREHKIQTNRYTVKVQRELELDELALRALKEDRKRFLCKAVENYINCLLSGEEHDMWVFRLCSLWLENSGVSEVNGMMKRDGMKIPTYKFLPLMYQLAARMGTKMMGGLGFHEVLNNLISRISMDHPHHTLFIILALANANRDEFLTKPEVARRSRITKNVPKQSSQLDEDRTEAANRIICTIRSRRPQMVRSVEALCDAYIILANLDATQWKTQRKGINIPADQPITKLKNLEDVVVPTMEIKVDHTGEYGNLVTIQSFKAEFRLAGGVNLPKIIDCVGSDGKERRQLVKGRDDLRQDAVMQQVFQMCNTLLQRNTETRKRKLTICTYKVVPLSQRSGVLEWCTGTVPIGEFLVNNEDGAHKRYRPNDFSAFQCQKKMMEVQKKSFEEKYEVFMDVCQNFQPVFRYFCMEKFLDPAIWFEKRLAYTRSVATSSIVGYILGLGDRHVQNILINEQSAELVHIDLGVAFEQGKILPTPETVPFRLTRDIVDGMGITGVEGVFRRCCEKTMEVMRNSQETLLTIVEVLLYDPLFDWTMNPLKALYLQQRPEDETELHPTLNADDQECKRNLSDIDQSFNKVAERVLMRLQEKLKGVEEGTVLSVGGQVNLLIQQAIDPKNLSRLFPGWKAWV

On to `CN(C)CCNCCCN1c2ccccc2Sc2c(-c3cc(=O)cc(N4CCOCC4)o3)cccc21` [Compound 282], for which the pIC50 is > 6.70.

Turning to `CCN1CCCC1CNCC(=O)Nc1ccc2c(c1)Sc1cccc(-c3cc(=O)cc(N4CCOCC4)o3)c1S2` (stereo not drawn) [Compound 87], the pIC50 is > 6.70.

`CCN1CCCC1CNCCC(=O)Nc1ccc2c(c1)Sc1cccc(-c3cc(=O)cc(N4CCOCC4)o3)c1S2` (stereo not drawn) [Compound 126]: the pIC50 was > 6.70.

For the molecule `O=C(Nc1ccc2c(c1)Sc1cccc(-c3cc(=O)cc(N4CCOCC4)o3)c1S2)c1cccs1` [Compound 32], the pIC50 is > 6.70.

As for `O=C(CN1CCNCC1)Nc1ccc2c(c1)Sc1cccc(-c3cc(=O)cc(N4CCOCC4)o3)c1S2` [Compound 53], the pIC50 was > 6.70.

With `O=C(Nc1ccc2c(c1)Sc1cccc(-c3cc(=O)cc(N4CCOCC4)o3)c1S2)c1ccc2c(c1)OCO2` [Compound 25], the pIC50 is > 6.70.

Regarding `O=C(COc1ccc2c(c1)Cc1cccc(-c3cc(=O)cc(N4CCOCC4)o3)c1S2)N1CCNCC1` [Compound 528], the pIC50 was > 6.70.

Take `CN(C)Cc1ccc(CSCCNCCOc2ccc(-c3cc(=O)cc(N4CCOCC4)o3)c3c2Sc2ccccc2S3)o1` [Compound 170]: the pIC50 was > 6.70.

`O=C(CCN1CCCCC1)Nc1ccc2c(c1)Sc1cccc(-c3cc(=O)cc(N4CCOCC4)o3)c1S2` [Compound 92]: the pIC50 was > 6.70.

Regarding `O=c1cc(-c2cccc3c2Sc2ccccc2N3CCCNCC2CCCCC2O)oc(N2CCOCC2)c1` (stereo not drawn) [Compound 328], the pIC50 is > 6.70.

As to `O=C(Nc1ccc2c(c1)Sc1cccc(-c3cc(=O)cc(N4CCOCC4)o3)c1S2)c1ccc2nsnc2c1` [Compound 45], the pIC50 is > 6.70.

On to `CC(C)(C)OC(=O)N1CCCN(CCCN2c3ccccc3Sc3c(-c4cc(=O)cc(N5CCOCC5)o4)cccc32)CC1` [Compound 333], for which the pIC50 was > 6.70.

As for `C[C@@H]1CN(CCOc2ccc3c(c2)Sc2cccc(-c4cc(=O)cc(N5CCOCC5)o4)c2S3)C[C@H](C)O1` [Compound 359], the pIC50 is > 6.70.

For `COCCN1CCN(C(=O)COc2ccc3c(c2)Sc2cccc(-c4cc(=O)cc(N5CCOCC5)o4)c2S3)CC1` [Compound 435], the pIC50 was > 6.70.

For `O=C(c1ccc2c(c1)Sc1cccc(-c3cc(=O)cc(N4CCOCC4)o3)c1S2)N1CCN(c2ccccc2F)CC1` [Compound 15], the pIC50 is > 6.70.

With `CCN1CCN(CC(=O)Nc2ccc3c(c2)Cc2cccc(-c4cc(=O)cc(N5CCOCC5)o4)c2S3)CC1` [Compound 342], the pIC50 was > 6.70.

`CC(C)N1CCN(CC(=O)Nc2ccc3c(c2)Sc2cccc(-c4cc(=O)cc(N5CCOCC5)o4)c2S3)CC1` [Compound 80]: the pIC50 was > 6.70.

For the molecule `CCCCNCCCN1c2ccccc2Sc2c(-c3cc(=O)cc(N4CCOCC4)o3)cccc21` [Compound 245], the pIC50 was > 6.70.

In the case of `O=C(Nc1ccc2c(c1)Sc1cccc(-c3cc(=O)cc(N4CCOCC4)o3)c1S2)C1CCC1` [Compound 34], the pIC50 was > 6.70.

On to `CN(C)CCN(C)C(=O)COc1ccc2c(c1)Sc1cccc(-c3cc(=O)cc(N4CCOCC4)o3)c1S2` [Compound 434], for which the pIC50 is > 6.70.

For the molecule `CCN1CCN(CC(=O)Nc2ccc3c(c2)Sc2cccc(-c4cc(=O)cc(N5CCOCC5)o4)c2S3)CC1` [Compound 81], the pIC50 is > 6.70.

As for `O=c1cc(-c2cccc3c2Sc2ccccc2N3CCCN2CCN(c3ncccn3)CC2)oc(N2CCOCC2)c1` [Compound 295], the pIC50 is > 6.70.

As for `CC(C)N1CCN(CCC(=O)Nc2ccc3c(c2)Sc2cccc(-c4cc(=O)cc(N5CCOCC5)o4)c2S3)CC1` [Compound 118], the pIC50 was > 6.70.

As to `C[C@@H]1CN(S(=O)(=O)c2ccc3c(c2)Cc2cccc(-c4cc(=O)cc(N5CCOCC5)o4)c2S3)C[C@H](C)O1` [Compound 478], the pIC50 was > 6.70.

Consider `O=C(CN1CCN(c2ncccn2)CC1)Nc1ccc2c(c1)Sc1cccc(-c3cc(=O)cc(N4CCOCC4)o3)c1S2` [Compound 84], for which the pIC50 was > 6.70.

For the molecule `COCCN(CCOC)CC(=O)Nc1ccc2c(c1)Sc1cccc(-c3cc(=O)cc(N4CCOCC4)o3)c1S2` [Compound 56], the pIC50 was > 6.70.

In the case of `CC(=O)Oc1ccccc1C(=O)Nc1ccc2c(c1)Sc1cccc(-c3cc(=O)cc(N4CCOCC4)o3)c1S2` [Compound 39], the pIC50 is > 6.70.

With `O=C(COc1ccc2c(c1)Cc1cccc(-c3cc(=O)cc(N4CCOCC4)o3)c1S2)NC1CCC1` [Compound 499], the pIC50 is > 6.70.

Take `O=C(Cc1cccs1)Nc1ccc2c(c1)Sc1cccc(-c3cc(=O)cc(N4CCOCC4)o3)c1S2` [Compound 33]: the pIC50 was > 6.70.

As for `CN1CCN(S(=O)(=O)c2ccc3c(c2)Cc2cccc(-c4cc(=O)cc(N5CCOCC5)o4)c2S3)CC1` [Compound 480], the pIC50 is > 6.70.

As for `CN(C)CCCNCCCN1c2ccccc2Sc2c(-c3cc(=O)cc(N4CCOCC4)o3)cccc21` [Compound 284], the pIC50 was > 6.70.

As to `Cc1noc(C)c1C(=O)Nc1ccc2c(c1)Sc1cccc(-c3cc(=O)cc(N4CCOCC4)o3)c1S2` [Compound 35], the pIC50 is > 6.70.

Regarding `CCCCNC(=O)COc1ccc2c(c1)Sc1cccc(-c3cc(=O)cc(N4CCOCC4)o3)c1S2` [Compound 407], the pIC50 is > 6.70.

In the case of `CCCNS(=O)(=O)c1ccc2c(c1)Cc1cccc(-c3cc(=O)cc(N4CCOCC4)o3)c1S2` [Compound 458], the pIC50 is > 6.70.

Regarding `CN1CCN(CC(=O)Nc2ccc3c(c2)Sc2cccc(-c4cc(=O)cc(N5CCOCC5)o4)c2S3)CC1` [Compound 54], the pIC50 is > 6.70.

In the case of `O=C(COc1ccc2c(c1)Sc1cccc(-c3cc(=O)cc(N4CCOCC4)o3)c1S2)N1CCCCC1` [Compound 440], the pIC50 is > 6.70.

Consider `O=c1cc(-c2cccc3c2Sc2ccc(S(=O)(=O)NCCO)cc2C3)oc(N2CCOCC2)c1` [Compound 484], for which the pIC50 was > 6.70.

For `O=C(Nc1ccc2c(c1)Sc1cccc(-c3cc(=O)cc(N4CCOCC4)o3)c1S2)c1ccncc1` [Compound 30], the pIC50 is > 6.70.

With `CN1CCCN(CCC(=O)Nc2ccc3c(c2)Sc2cccc(-c4cc(=O)cc(N5CCOCC5)o4)c2S3)CC1` [Compound 99], the pIC50 was > 6.70.

For `CC1(C)OCC(CNCCCN2c3ccccc3Sc3c(-c4cc(=O)cc(N5CCOCC5)o4)cccc32)O1` (stereo not drawn) [Compound 321], the pIC50 was > 6.70.

As to `C[C@@H]1COC[C@H](C)N1CCCOc1ccc(-c2cc(=O)cc(N3CCOCC3)o2)c2c1Sc1ccccc1S2` [Compound 181], the pIC50 was > 6.70.

Turning to `O=c1cc(-c2cccc3c2Sc2ccc(S(=O)(=O)N4CCCC4)cc2C3)oc(N2CCOCC2)c1` [Compound 468], the pIC50 is > 6.70.

For the molecule `CN(C)CCN1CCN(CC(=O)Nc2ccc3c(c2)Sc2cccc(-c4cc(=O)cc(N5CCOCC5)o4)c2S3)CC1` [Compound 86], the pIC50 was > 6.70.

Consider `CCN(CC)CCC(=O)Nc1ccc2c(c1)Sc1cccc(-c3cc(=O)cc(N4CCOCC4)o3)c1S2` [Compound 105], for which the pIC50 is > 6.70.

As for `O=c1cc(-c2cccc3c2Sc2ccccc2N3CCCN2CCCCCC2)oc(N2CCOCC2)c1` [Compound 260], the pIC50 is > 6.70.

`COCCN(CCOC)C(=O)COc1ccc2c(c1)Sc1cccc(-c3cc(=O)cc(N4CCOCC4)o3)c1S2` [Compound 445]: the pIC50 was > 6.70.

As for `NC(=O)C1CCN(S(=O)(=O)c2ccc3c(c2)Cc2cccc(-c4cc(=O)cc(N5CCOCC5)o4)c2S3)CC1` [Compound 469], the pIC50 is > 6.70.

As for `O=C(COc1ccc2c(c1)Cc1cccc(-c3cc(=O)cc(N4CCOCC4)o3)c1S2)N1CCSCC1` [Compound 510], the pIC50 is > 6.70.

Turning to `O=c1cc(-c2cccc3c2Sc2ccc(OCCNCCO)cc2S3)oc(N2CCOCC2)c1` [Compound 367], the pIC50 was > 6.70.

For `O=C(COc1ccc2c(c1)Sc1cccc(-c3cc(=O)cc(N4CCOCC4)o3)c1S2)N1CCN(C(=O)c2ccco2)CC1` [Compound 414], the pIC50 is > 6.70.

In the case of `CCN(CCC(=O)Nc1ccc2c(c1)Sc1cccc(-c3cc(=O)cc(N4CCOCC4)o3)c1S2)Cc1ccccc1` [Compound 111], the pIC50 is > 6.70.

In the case of `O=C(CCSc1ncn[nH]1)Nc1ccc2c(c1)Sc1cccc(-c3cc(=O)cc(N4CCOCC4)o3)c1S2` [Compound 104], the pIC50 is > 6.70.

Consider `O=c1cc(-c2cccc3c2Sc2ccc(S(=O)(=O)NCCc4cnc[nH]4)cc2C3)oc(N2CCOCC2)c1` [Compound 465], for which the pIC50 is > 6.70.

As for `O=c1cc(-c2cccc3c2Sc2ccccc2N3CCCNC2CCC(O)CC2)oc(N2CCOCC2)c1` (stereo not drawn) [Compound 306], the pIC50 is > 6.70.

Take `O=C(CCN1CCN(c2ccccn2)CC1)Nc1ccc2c(c1)Cc1cccc(-c3cc(=O)cc(N4CCOCC4)o3)c1S2` [Compound 353]: the pIC50 is > 6.70.

As for `O=c1cc(-c2cccc3c2Sc2ccc(S(=O)(=O)N4CCCNCC4)cc2C3)oc(N2CCOCC2)c1` [Compound 489], the pIC50 is > 6.70.

In the case of `CCOC(=O)C1CCCN(CCCN2c3ccccc3Sc3c(-c4cc(=O)cc(N5CCOCC5)o4)cccc32)C1` (stereo not drawn) [Compound 315], the pIC50 is > 6.70.

With `CN(C)CCN(C)CC(=O)Nc1ccc2c(c1)Sc1cccc(-c3cc(=O)cc(N4CCOCC4)o3)c1S2` [Compound 73], the pIC50 was > 6.70.

Turning to `CC(C)NC(=O)CN1CCN(CC(=O)Nc2ccc3c(c2)Sc2cccc(-c4cc(=O)cc(N5CCOCC5)o4)c2S3)CC1` [Compound 85], the pIC50 is > 6.70.

As to `O=C(COc1ccc2c(c1)Sc1cccc(-c3cc(=O)cc(N4CCOCC4)o3)c1S2)N[C@@H](CO)C(=O)OCc1ccccc1` [Compound 424], the pIC50 was > 6.70.

Regarding `O=C(COc1ccc2c(c1)Sc1cccc(-c3cc(=O)cc(N4CCOCC4)o3)c1S2)NC1CCC1` [Compound 405], the pIC50 is > 6.70.

For `COC(=O)C(=O)Nc1ccc2c(c1)Sc1cccc(-c3cc(=O)cc(N4CCOCC4)o3)c1S2` [Compound 36], the pIC50 was > 6.70.

As for `NCCNCCC(=O)Nc1ccc2c(c1)Sc1cccc(-c3cc(=O)cc(N4CCOCC4)o3)c1S2` [Compound 97], the pIC50 was > 6.70.

Values taken from patent publication US7429660B2, “ATM inhibitors” (Kudos Pharmaceuticals Limited, priority 2003, dated 2008).
